The target in assay [1] is T1, human enzyme NAMPT (full length) (Homo sapiens, UniProt P43490).
T1 construct: human enzyme NAMPT (full length)
The assay can be described thus: NMN fluorescence biochemical assay (stimulation of NMN synthesis by NAMPT). The following applies: for EC50: concentration giving half-maximal activation, read-out: Enzymatic EC50; for Enzymatic Emax: fold change of maximal activation compared to DMSO. In short, it runs like this: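 Full-length human NAMPT (100 nM) was preincubated 15 min at 37 °C with compound in 50 mM Tris-HCl pH 7.5, 10 mM MgCl2, 2 mM DTT, then reacted 1 h at 37 °C with 50 μM NAM, 100 μM PRPP, 4 mM ATP (stated solution concentrations). NMN was derivatised with acetophenone/KOH then formic acid and read at Ex/Em 382/445 nm; EC50 and Emax (fold over DMSO) reported.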

Assay [2] has as its system endogenous NAMPT in U2OS cells. Put plainly: Cellular NAD+ modulation assay (NAD/NADH-Glo, U2OS cells). The following applies: Homo sapiens; for maximal fold induction: read-out: Cellular Emax. Format: cell-based. In short, it runs like this: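 Endogenous NAMPT stimulation in U2OS cells treated with compound dilution series for 24 h at 37 °C. Cells lysed with DTAB base, acid-treated 15 min at 60 °C, neutralized, NAD+ read by NAD/NADH-Glo luminescence after 40 min at room temperature. EC50 and Emax (fold over DMSO) derived.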

Where [3] appears, read: NMN fluorescence assay, purified human NAMPT 100 nM.
Setting [4] is: 24 hours incubation, cellular NAD+.
[5] abbreviates: NMN synthesis by purified human NAMPT (100 nM).
Setting [6] is: 24 hours incubation with compound.

Read-outs that look alike come from different tables or passages of the source.

Data on nine molecules can be found in patent US20260078130A1, “NAMPT MODULATORS, PREPARATIONS, AND USES THEREOF” (SIRONAX LTD., priority 2022, published 2026).

Broadly, the EC50 is the concentration needed to bring the measured effect to its halfway point.

T1 sequence (P43490 whole entry): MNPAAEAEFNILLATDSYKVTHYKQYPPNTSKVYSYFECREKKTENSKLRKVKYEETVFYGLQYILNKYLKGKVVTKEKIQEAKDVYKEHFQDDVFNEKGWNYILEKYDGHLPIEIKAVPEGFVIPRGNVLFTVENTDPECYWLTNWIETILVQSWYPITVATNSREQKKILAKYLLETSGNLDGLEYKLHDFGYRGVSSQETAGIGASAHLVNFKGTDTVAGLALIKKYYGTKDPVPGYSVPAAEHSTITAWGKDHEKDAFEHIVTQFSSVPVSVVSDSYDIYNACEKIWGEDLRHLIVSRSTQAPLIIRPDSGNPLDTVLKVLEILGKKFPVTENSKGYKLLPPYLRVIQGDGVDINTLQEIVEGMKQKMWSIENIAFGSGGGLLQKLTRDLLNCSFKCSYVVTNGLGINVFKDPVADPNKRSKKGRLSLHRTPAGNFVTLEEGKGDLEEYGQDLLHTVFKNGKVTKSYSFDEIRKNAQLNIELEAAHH

As to `Cc1ccnc(Br)c1CC1c2ccccc2C(=O)N1C/C=C/c1c[nH]nn1` (stereo not drawn) [Compound 380, (E)-2-(3-(1H-1,2,3-triazol-4-yl)allyl)-3-((2-bromo-4-methylpyridin-3-yl)methyl) isoindolin-1-one], the 50% effective concentration (EC50) in assay [1] (setting [3]) is less than 500 nM. Also, the “Enzymatic Emax” value in assay [1] is given as “B (3≥B>2)”. Also, in assay [2] (setting [4]), the EC50 is less than 500 nM and the maximal fold induction is more than 1.5.
Take `O=C1c2ccccc2C(Cc2ncsc2Cl)N1Cc1ccc2[nH]nnc2c1` (stereo not drawn) [Compound 418, 2-((1H-benzo[d][1,2,3]triazol-5-yl)methyl)-3-((5-chlorothiazol-4-yl)methyl)isoindolin-1-one]: the concentration for a half-maximal effect (EC50) in assay [1] (setting [3]) is less than 500 nM. The “Enzymatic Emax” value in assay [1] is on record as “B (3≥B>2)”. Besides, in assay [2] (setting [4]), the EC50 was less than 500 nM and the maximal fold induction is more than 1.5.
With `O=C1c2ccccc2C(Cc2ncccc2Br)N1C/C=C/c1cn[nH]c1` (stereo not drawn) [Compound 423, (E)-2-(3-(1H-pyrazol-4-yl)allyl)-3-((3-bromopyridin-2-yl)methyl)isoindolin-1-one], in assay [1] (setting [3]), the EC50 was less than 500 nM. For the same molecule, the “Enzymatic Emax” value in assay [1] was “B (3≥B>2)”. In assay [2] (setting [4]), the EC50 was less than 500 nM and the maximal fold induction is more than 1.5.
For `Cn1ncc(Cl)c1CC1c2cc(OC(F)F)ccc2C(=O)N1Cc1ccc2[nH]nnc2c1` (stereo not drawn) [Compound 421, 2-((1H-benzo[d][1,2,3]triazol-5-yl)methyl)-3-((4-chloro-1-methyl-1H-pyrazol-5-yl)methyl)-5-(difluoromethoxy)isoindolin-1-one], the EC50 in assay [1] (setting [3]) is less than 500 nM. Further, the “Enzymatic Emax” value in assay [1] was “B (3≥B>2)”. In addition, in assay [2] (setting [4]), the half-maximal effective concentration (EC50) is less than 500 nM and the maximal fold induction was more than 1.5.
Take `Cn1ncc(Cl)c1C[C@H]1c2ccccc2C(=O)N1C[C@H]1C[C@]2(CNC(=O)O2)C1` [Compound 406, (2s,4R)-2-(((S)-1-((4-chloro-1-methyl-1H-pyrazol-5-yl)methyl)-3-oxoisoindolin-2-yl)methyl)-5-oxa-7-azaspiro[3.4]octan-6-one]: the concentration for a half-maximal effect (EC50) in assay [1] (setting [3]) was less than 500 nM. Moreover, the “Enzymatic Emax” value in assay [1] is on record as “B (3≥B>2)”. For the same molecule, in assay [2] (setting [4]), the EC50 is less than 500 nM and the maximal fold induction was more than 1.5.
With `COc1ccccc1CC1c2ccccc2C(=O)N1Cc1ccc2[nH]c(=O)oc2c1` (stereo not drawn) [Compound 142, 6-((1-(2-methoxybenzyl)-3-oxoisoindolin-2-yl)methyl)benzo[d]oxazol-2(3H)-one], the 50% effective concentration (EC50) was less than 500 nM in assay [1] (setting [5]) and 500 to 5000 nM in assay [2] (setting [6]). Also, the “Enzymatic Emax” value in assay [1] is “B (3≥B>2)”. For the same molecule, the maximal fold induction in assay [2] (setting [6]) is more than 1.5.
As for `Cn1ncc(Cl)c1CC1c2ccccc2C(=O)N1CC#Cc1c[nH]nc1Cl` (stereo not drawn) [Compound 477, 3-((4-chloro-1-methyl-1H-pyrazol-5-yl)methyl)-2-(3-(3-chloro-1H-pyrazol-4-yl)prop-2-yn-1-yl)isoindolin-1-one], the concentration for a half-maximal effect (EC50) in assay [1] (setting [3]) and in assay [2] (setting [4]) was less than 500 nM throughout. The “Enzymatic Emax” value in assay [1] is on record as “B (3≥B>2)”. Further, the maximal fold induction in assay [2] (setting [4]) is more than 1.5.
For the molecule `Cn1nnc(Cl)c1CC1c2ccccc2C(=O)N1Cc1ccc2[nH]nnc2c1` (stereo not drawn) [Compound 334, 2-((1H-benzo[d][1,2,3]triazol-5-yl)methyl)-3-((4-chloro-1-methyl-1H-1,2,3-triazol-5-yl)methyl)isoindolin-1-one], the values for the EC50 in assay [1] (setting [3]) and in assay [2] (setting [4]) were 500 to 5000 nM and less than 500 nM, respectively. Also, in assay [1], the “Enzymatic Emax” value was “A (A>3)”. The maximal fold induction in assay [2] (setting [4]) is more than 1.5.
Consider `CC1c2ccccc2C(=O)N1Cc1ccc(NC(=O)NCc2cn[nH]c2)cc1` (stereo not drawn) [Compound 292, 1-((1H-pyrazol-4-yl)methyl)-3-(4-((1-methyl-3-oxoisoindolin-2-yl)methyl)phenyl)urea], for which the half-maximal effective concentration (EC50) in assay [1] (setting [5]) and in assay [2] (setting [6]) was less than 500 nM in each case. Moreover, in assay [1], the “Enzymatic Emax” value is recorded as “C (2≥C)”. Moreover, the maximal fold induction in assay [2] (setting [6]) was not above 1.2.
